Experimental findings from patent CN1119437A, “环缩酚酸肽pf1022衍生物” (Meiji Seika Kaisha Ltd, priority 1993, dated 1996) are described below.

One assay relates to 巴西日园线虫. Nature of the assay: Anthelmintic efficacy against rat intestinal nematode (Test 3). The conditions noted are these: male Wistar rats, 2000 larvae s.c., 10 mg/kg 7 days after infection, adult worms in small intestine counted 10 days after dosing. The format is in vivo.
The test system of the next assay is 鸡蛔虫. Nature of the assay: Chicken roundworm removal test (Test 1). The format is in vivo.

`CC(C)C[C@H]1C(=O)O[C@H](Cc2ccc(O)cc2)C(=O)N(C)[C@@H](CC(C)C)C(=O)O[C@H](C)C(=O)N(C)[C@@H](CC(C)C)C(=O)O[C@H](Cc2ccccc2)C(=O)N(C)[C@@H](CC(C)C)C(=O)O[C@H](C)C(=O)N1C` [PF1022 E, 环—(—L—MeLeu—D—Lac—L—MeLeu—D—TYRA—L—MeLeu-D—Lac—L—Mekeu—D—PhLac)]: in the assay with 巴西日园线虫, the “存留虫收(average value±SD)” value worked out at 2175±134.4. This compound also returned a 杀虫率 in the assay on 鸡蛔虫 (dose 0.5 mg/kg) of 70%. In the case of `CC(C)CC1C(=O)OC(C)C(=O)N(C)C(CC(C)C)C(=O)OC(C)C(=O)N(C)C(CC(C)C)C(=O)OC(C)C(=O)N(C)C(CC(C)C)C(=O)OC(C)C(=O)N1C` (centres unmarked) [PF1022-002, 环—(L—meLeu—D—Lac—)4], the “存留虫收(average value±SD)” value in the assay with 巴西日园线虫 amounted to 1976.5±306.2. With `CC(C)C[C@H]1OC(=O)[C@H](CC(C)C)N(C)C(=O)[C@@H](C)OC(=O)[C@H](CC(C)C)N(C)C(=O)[C@@H](Cc2ccccc2)OC(=O)[C@H](CC(C)C)N(C)C(=O)[C@@H](C)OC(=O)[C@H](CC(C)C)N(C)C1=O` [PF1022-003, 环—(—L—MeLeu—D—Lac—L—MeLeu—D—PhLac—L—Meleu—D—Lac—L—Meleu—D—LEUA)], the “存留虫收(average value±SD)” value in the assay with 巴西日园线虫 is on record as 689±48.1. Also, the 杀虫率 in the assay on 鸡蛔虫 (dose 10 mg/kg) was found to be 76%.

Regarding `CC(C)CC1NC(=O)C(Cc2ccccc2)OC(=O)C(CC(C)C)N(C)C(=O)C(C)OC(=O)C(CC(C)C)NC(=O)C(Cc2ccccc2)OC(=O)C(CC(C)C)N(C)C(=O)C(C)OC1=O` (centres unmarked) [PF1022-218, 环—(L—MeLeu—D—PhLac—L—Leu—D—Lac)2], the “存留虫收(average value±SD)” value with 巴西日园线虫 worked out at 2400±362.0.

For `CC(C)C[C@@H]1NC(=O)[C@@H](C)OC(=O)[C@H](CC(C)C)N(C)C(=O)[C@@H](Cc2ccccc2)OC(=O)[C@H](CC(C)C)NC(=O)[C@@H](C)OC(=O)[C@H](CC(C)C)N(C)C(=O)[C@@H](Cc2ccccc2)OC1=O` [PF1022-219, 环—(L—MeLeu—D—Lac—L—Leu—D—PhLac)2], the “存留虫收(average value±SD)” value with 巴西日园线虫 came out at 2084.5±94.0. Take `CC(C)CC1C(=O)OC(CC2CCCCC2)C(=O)N(C)C(CC(C)C)C(=O)OC(C)C(=O)N(C)C(CC(C)C)C(=O)OC(CC2CCCCC2)C(=O)N(C)C(CC(C)C)C(=O)OC(C)C(=O)N1C` (centres unmarked) [PF1022-ADH, 十二氢—PF 1022]: the 杀虫率 with 鸡蛔虫 (dose 5 mg/kg) amounted to 30%. In the assay with 鸡蛔虫 (dose 5 mg/kg), `CC(C)CC1C(=O)OC(CC2CCCCC2)C(=O)N(C)C(CC(C)C)C(=O)OC(C)C(=O)N(C)C(CC(C)C)C(=O)OC(Cc2ccccc2)C(=O)N(C)C(CC(C)C)C(=O)OC(C)C(=O)N1C` (centres unmarked) [PF1022-AHH, 六氢—PF1022] returned a 杀虫率 of 62%. As for `CC(C)C[C@H]1C(=O)O[C@H](Cc2ccccc2)C(=O)N(C)[C@@H](CC(C)C)C(=O)O[C@H](C)C(=O)N(C)[C@@H](CC(C)C)C(=O)O[C@H](Cc2ccccc2)C(=O)N(C)[C@@H](CC(C)C)C(=O)O[C@H](C)C(=O)N1C` [PF1022], the “存留虫收(average value±SD)” value in the assay on 巴西日园线虫 worked out at 403±32.5. In addition, the values for the 杀虫率 with 鸡蛔虫 (dose 0.5 mg/kg) and in the assay on 鸡蛔虫 (dose 1.0 mg/kg) were 50-70% and 60-86%, respectively. In the assay with 鸡蛔虫 (dose 5 mg/kg), “环—(L—MeLeu—D—PhLac—L—MeLeu—D—Lac—L—MeLeu—D—TYRA(OBn)—L—MeLeu—D—Lac) [PF1022-022]” yielded a 杀虫率 of 84%. For “环—(L—MeLeu—D—VALA—L—MeLeu—D—Lac)2 [PF1022-209]”, the “存留虫收(average value±SD)” value in the assay with 巴西日园线虫 amounted to 827±388.9.
